The values that follow come from PubChem BioAssay AID1996.

SMILES strings stand for the structures. Values after ≈ are worked out from the molar mass of the structure shown. Bounds are passed on as bounds.

For the data set the following is noted: buffer; pH 7.4; 200.0 µM.
As for `Cc1ccc2[nH]c(O)c(N=O)c2c1`, the kinetic solubility was > 26.4 µg/mL. In the case of `COc1ccc(Nc2nc(C)nc3c2oc2ccccc23)c(OC)c1`, the solubility (kinetic) is < 0.2 µg/mL. The compound `CCC(C)NCCCOc1ccc(C)cc1OC` (configuration not stated) gave a solubility (kinetic) of 35.1 µg/mL (≈ 140 µM). `O=C(c1ccccc1)N1C(=O)C(c2ccccc2)Oc2ccccc21` (configuration not stated) registered a kinetic solubility of 3.1 µg/mL (≈ 9.41 µM). The value for `O=C(Nc1ccc2ncccc2c1)c1ccccc1Br` was 3.3 µg/mL (≈ 10.1 µM).

In turn, `O=C(O)C1CCN(C(=O)c2ccc3c(c2)OCO3)CC1` had a solubility (kinetic) of 36.2 µg/mL (≈ 131 µM). The value for `COc1ccc(-c2noc(=O)n2Cc2ccc(F)cc2Cl)cc1` was 3.5 µg/mL (≈ 10.5 µM); that for `CC1(C)C(=O)OC(c2ccc([N+](=O)[O-])cc2)C(C)(C)C1=O` (configuration not stated) was 2.5 µg/mL (≈ 8.58 µM); that for `CN(C)CC/C=C1\c2cc(Cl)ccc2Sc2cc(F)c(F)cc21.Cl` was 21.8 µg/mL.

With `c1cncc(C2Nc3cccc4cccc(c34)N2)c1`, the solubility (kinetic) was > 37.1 µg/mL. The value for `Cc1ccc(OCC(O)CN2CCOCC2)cc1` (configuration not stated) was 33.4 µg/mL (≈ 133 µM); that for `Cc1ccc(S(=O)(=O)/N=C/c2c(O)ccc3ccccc23)cc1` was 30.8 µg/mL (≈ 94.7 µM). On to `COc1nc(OC)nc(N2CCC(C(=O)NC3CC3)CC2)n1`, for which the kinetic solubility was 37 µg/mL (≈ 120 µM). Consider `CN1C=CC=C/C1=C1/N=C(c2ccccc2)OC1=O`, for which the kinetic solubility is > 37.8 µg/mL.

As for `Cc1cc(C)nc(SCc2cn3c(C)cccc3n2)n1`, the solubility (kinetic) was found to be 37.9 µg/mL (≈ 133 µM). `O=C(CCCn1cnc2ccccc2c1=O)Nc1ccccc1F` yielded a kinetic solubility of 20.2 µg/mL (≈ 62.1 µM). The compound `O=C(c1ccc(Cl)cc1)N(c1ccccn1)C1CCCCC1` displayed a solubility (kinetic) of 41.5 µg/mL (≈ 132 µM).

`CC(C)(C)NC(=O)c1ccccc1NC(=O)c1ccc2c(c1)OCO2`: the solubility (kinetic) came to 5.3 µg/mL (≈ 15.6 µM). Turning to `O=C(Nc1ccc(NC(=O)c2ccccc2O)cc1)Nc1ccc(F)cc1F`, the kinetic solubility worked out at 1.1 µg/mL (≈ 2.87 µM). The compound `O=C(CN1C(=O)NC2(CCc3ccccc32)C1=O)c1ccccc1` (configuration not stated) had a kinetic solubility of 40.1 µg/mL (≈ 125 µM). In the case of `CCOc1c(Cl)cc(CNCc2ccncc2)cc1OC.Cl`, the kinetic solubility was found to be 46.1 µg/mL. For `Cc1cccc(C)c1NC(=O)c1cccnc1`, the solubility (kinetic) was 33.1 µg/mL (≈ 146 µM).

As for `CC[C@H](C)[C@H](NC(N)=O)C(=O)NCCc1ccc(OC)c(OC)c1`, the kinetic solubility is > 50.6 µg/mL. In the case of `COc1ccc(NC(=O)Nc2cnccn2)cc1`, the solubility (kinetic) was 8.1 µg/mL (≈ 33.2 µM). As for `O=C(NCCc1ccc(F)cc1)Nc1ccc([N+](=O)[O-])cc1`, the kinetic solubility was 4.9 µg/mL (≈ 16.2 µM). On to `CCOC(=O)C1=C(O)CSC1=Nc1ccc(C)cc1`, for which the kinetic solubility is > 41.6 µg/mL. With `Cc1nnc(Nc2ccccc2F)s1` the figure was > 31.4 µg/mL; with `CCCc1cc(=O)[nH]c(SCC(=O)NCCN2C(=O)CSC2=O)n1`, > 55.6 µg/mL. Consider `Cc1cccc(C(=O)OCC(=O)N2CC(=O)Nc3ccccc32)c1C`, for which the kinetic solubility was 4.2 µg/mL (≈ 12.4 µM). For the compound `CNC(=S)Nc1ccc([N+](=O)[O-])c(C)c1`, the kinetic solubility is 32.3 µg/mL (≈ 143 µM). With `CCCc1cc(=O)oc2c(CN3CCN(C)CC3)c(O)ccc12` the figure was 45.2 µg/mL (≈ 143 µM); with `Cn1c(-c2ccncc2)nc2ccccc21`, > 31.4 µg/mL. `CCCN1CCC(N2CCN(c3ccc([N+](=O)[O-])cc3)CC2)CC1` returned a solubility (kinetic) of 32.3 µg/mL (≈ 97.2 µM). The value for `Cn1c(-c2ccc(Cl)nc2)nc2cc(Cl)ccc21` was 6.6 µg/mL (≈ 23.7 µM); that for `O=C1Cc2ccccc2C(c2ccc(Cl)cc2Cl)N1` (configuration not stated) was 3.1 µg/mL (≈ 10.6 µM). The value for `CN1CCN(S(=O)(=O)c2ccc3c(c2)oc(=O)n3C)CC1` was > 46.7 µg/mL. With `Cc1cc(C(=O)Nc2ccc(F)cc2C)n(-c2ccccc2)n1` the figure was > 46.4 µg/mL; with `CCOC(=O)Oc1ccc(/C=C2\N=C(C)OC2=O)cc1`, 35.9 µg/mL (≈ 130 µM); with `Nc1ncnc(Nc2c(F)cccc2F)n1`, > 33.5 µg/mL. `CN(CC(=O)Nc1ccc(Cl)cc1)C(=O)CCc1ccccc1` registered a solubility (kinetic) of 5.2 µg/mL (≈ 15.7 µM). The value for `Cl.N=c1sccn1CC(=O)Nc1ccc(Cl)cc1[N+](=O)[O-]` was 44.4 µg/mL; that for `Fc1ccc(SCCc2ccccn2)cc1` was 7.1 µg/mL (≈ 30.4 µM).

Usually solubility (kinetic) stands for solubility judged after dilution from a stock solution rather than from solid.
